Source: PubChem BioAssay (NCI)
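Five concentrations, 48 hours, 96-well plates. TGI marks complete inhibition of growth.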

Legend:
Assay in all cases: growth of human tumour cells (NCI), 48 h
A549 NSCLC = tested on: A549 NSCLC
IGROV1 ovarian = tested on: IGROV1 ovarian
BT-549 breast = tested on: BT-549 breast
UACC-62 melanoma = tested on: UACC-62 melanoma
SN12C renal = tested on: SN12C renal
NCI-H23 lung = tested on: NCI-H23 lung
COLO 205 colon = tested on: COLO 205 colon
SK-MEL-5 melanoma = tested on: SK-MEL-5 melanoma
HOP-62 NSCLC = tested on: HOP-62 NSCLC
SW-620 colon = tested on: SW-620 colon
MDA-N = tested on: MDA-N
HS 578T breast = tested on: HS 578T breast
NCI-H522 lung = tested on: NCI-H522 lung
NCI/ADR-RES ovarian = tested on: NCI/ADR-RES ovarian
SK-MEL-28 melanoma = tested on: SK-MEL-28 melanoma
SNB-19 CNS = tested on: SNB-19 CNS
SF-295 CNS = tested on: SF-295 CNS
HL-60(TB) leukemia = tested on: HL-60(TB) leukemia
ACHN renal = tested on: ACHN renal
MCF7 breast = tested on: MCF7 breast
M14 melanoma = tested on: M14 melanoma
HCT-116 colon = tested on: HCT-116 colon
KM12 colon = tested on: KM12 colon
OVCAR-5 ovarian = tested on: OVCAR-5 ovarian
786-0 renal = tested on: 786-0 renal
RPMI-8226 leukemia = tested on: RPMI-8226 leukemia
T-47D breast = tested on: T-47D breast
A498 renal = tested on: A498 renal
EKVX NSCLC = tested on: EKVX NSCLC
MOLT-4 leukemia = tested on: MOLT-4 leukemia
NCI-H226 lung = tested on: NCI-H226 lung
SNB-75 CNS = tested on: SNB-75 CNS
OVCAR-3 ovarian = tested on: OVCAR-3 ovarian
SR leukemia = tested on: SR leukemia
CAKI-1 renal = tested on: CAKI-1 renal
SF-268 CNS = tested on: SF-268 CNS
UACC-257 melanoma = tested on: UACC-257 melanoma
LOX IMVI melanoma = tested on: LOX IMVI melanoma
OVCAR-8 ovarian = tested on: OVCAR-8 ovarian
RXF 393 renal = tested on: RXF 393 renal
HT29 colon = tested on: HT29 colon
CCRF-CEM leukemia = tested on: CCRF-CEM leukemia
HCT-15 colon = tested on: HCT-15 colon
HOP-92 NSCLC = tested on: HOP-92 NSCLC
K-562 leukemia = tested on: K-562 leukemia
PC-3 prostate = tested on: PC-3 prostate
MALME-3M melanoma = tested on: MALME-3M melanoma
NCI-H460 lung = tested on: NCI-H460 lung
UO-31 renal = tested on: UO-31 renal
SK-MEL-2 melanoma = tested on: SK-MEL-2 melanoma
SK-OV-3 ovarian = tested on: SK-OV-3 ovarian
U251 CNS = tested on: U251 CNS
OVCAR-4 ovarian = tested on: OVCAR-4 ovarian
MDA-MB-231 breast = tested on: MDA-MB-231 breast
DU-145 prostate = tested on: DU-145 prostate
TK-10 renal = tested on: TK-10 renal
MDA-MB-435 = tested on: MDA-MB-435
HCC-2998 colon = tested on: HCC-2998 colon
SF-539 CNS = tested on: SF-539 CNS

Structure (SMILES): O=C(NCc1ccccc1)c1cc2ccccc2oc1=Nc1ccccc1F
- TGI (A549 NSCLC): 88.7 µM
- TGI (IGROV1 ovarian): > 100 µM
- TGI (BT-549 breast): > 100 µM
- TGI (UACC-62 melanoma): > 100 µM
- TGI (SN12C renal): 96.3 µM
- TGI (NCI-H23 lung): 57.5 µM
- TGI (COLO 205 colon): 74.4 µM
- TGI (SK-MEL-5 melanoma): 51.9 µM
- TGI (HOP-62 NSCLC): 39.8 µM
- TGI (SW-620 colon): > 100 µM
- TGI (MDA-N): > 100 µM
- TGI (HS 578T breast): > 100 µM
- TGI (NCI-H522 lung): > 100 µM
- TGI (NCI/ADR-RES ovarian): > 100 µM
- TGI (SK-MEL-28 melanoma): > 100 µM
- TGI (SNB-19 CNS): > 100 µM
- TGI (SF-295 CNS): > 100 µM
- TGI (HL-60(TB) leukemia): > 100 µM
- TGI (ACHN renal): 58.3 µM
- TGI (MCF7 breast): > 100 µM
- TGI (M14 melanoma): > 100 µM
- TGI (HCT-116 colon): > 100 µM
- TGI (KM12 colon): > 100 µM
- TGI (OVCAR-5 ovarian): > 100 µM
- TGI (786-0 renal): 24.1 µM
- TGI (RPMI-8226 leukemia): > 100 µM
- TGI (T-47D breast): > 100 µM
- TGI (A498 renal): > 100 µM
- TGI (EKVX NSCLC): > 100 µM
- TGI (MOLT-4 leukemia): > 100 µM
- TGI (NCI-H226 lung): 92.2 µM
- TGI (SNB-75 CNS): 45.5 µM
- TGI (OVCAR-3 ovarian): > 100 µM
- TGI (SR leukemia): > 100 µM
- TGI (CAKI-1 renal): 27.9 µM
- TGI (SF-268 CNS): > 100 µM
- TGI (UACC-257 melanoma): > 100 µM
- TGI (LOX IMVI melanoma): 37.3 µM
- TGI (OVCAR-8 ovarian): 31.2 µM
- TGI (RXF 393 renal): 84.5 µM
- TGI (HT29 colon): > 100 µM
- TGI (CCRF-CEM leukemia): > 100 µM
- TGI (HCT-15 colon): > 100 µM
- TGI (HOP-92 NSCLC): > 100 µM
- TGI (K-562 leukemia): > 100 µM
- TGI (PC-3 prostate): > 100 µM
- TGI (MALME-3M melanoma): > 100 µM
- TGI (NCI-H460 lung): > 100 µM
- TGI (UO-31 renal): 36.1 µM
- TGI (SK-MEL-2 melanoma): > 100 µM
- TGI (SK-OV-3 ovarian): 47.5 µM
- TGI (U251 CNS): > 100 µM
- TGI (OVCAR-4 ovarian): 76.7 µM
- TGI (MDA-MB-231 breast): 47.3 µM
- TGI (DU-145 prostate): > 100 µM
- TGI (TK-10 renal): 36.7 µM
- TGI (MDA-MB-435): > 100 µM
- TGI (HCC-2998 colon): 61.5 µM

Structure (SMILES): Cc1cc(S(=O)(=O)Nc2n[nH]c(-c3ccc(Cl)cn3)n2)c(S)cc1Cl
- TGI (A549 NSCLC): > 100 µM
- TGI (IGROV1 ovarian): > 100 µM
- TGI (BT-549 breast): > 100 µM
- TGI (UACC-62 melanoma): > 100 µM
- TGI (SN12C renal): > 100 µM
- TGI (COLO 205 colon): > 100 µM
- TGI (SK-MEL-5 melanoma): > 100 µM
- TGI (HOP-62 NSCLC): > 100 µM
- TGI (SW-620 colon): > 100 µM
- TGI (MDA-N): > 100 µM
- TGI (HS 578T breast): 87.2 µM
- TGI (NCI-H522 lung): > 100 µM
- TGI (NCI/ADR-RES ovarian): > 100 µM
- TGI (SK-MEL-28 melanoma): > 100 µM
- TGI (SNB-19 CNS): 92.5 µM
- TGI (HL-60(TB) leukemia): > 100 µM
- TGI (ACHN renal): > 100 µM
- TGI (MCF7 breast): > 100 µM
- TGI (M14 melanoma): > 100 µM
- TGI (HCT-116 colon): > 100 µM
- TGI (KM12 colon): > 100 µM
- TGI (OVCAR-5 ovarian): > 100 µM
- TGI (786-0 renal): > 100 µM
- TGI (RPMI-8226 leukemia): > 100 µM
- TGI (T-47D breast): > 100 µM
- TGI (A498 renal): > 100 µM
- TGI (EKVX NSCLC): > 100 µM
- TGI (MOLT-4 leukemia): > 100 µM
- TGI (NCI-H226 lung): > 100 µM
- TGI (SNB-75 CNS): > 100 µM
- TGI (OVCAR-3 ovarian): > 100 µM
- TGI (SR leukemia): > 100 µM
- TGI (CAKI-1 renal): > 100 µM
- TGI (SF-268 CNS): > 100 µM
- TGI (UACC-257 melanoma): > 100 µM
- TGI (LOX IMVI melanoma): > 100 µM
- TGI (OVCAR-8 ovarian): > 100 µM
- TGI (RXF 393 renal): > 100 µM
- TGI (HT29 colon): > 100 µM
- TGI (HCT-15 colon): > 100 µM
- TGI (HOP-92 NSCLC): > 100 µM
- TGI (PC-3 prostate): > 100 µM
- TGI (MALME-3M melanoma): > 100 µM
- TGI (NCI-H460 lung): > 100 µM
- TGI (UO-31 renal): 99.4 µM
- TGI (SK-MEL-2 melanoma): > 100 µM
- TGI (SK-OV-3 ovarian): > 100 µM
- TGI (U251 CNS): > 100 µM
- TGI (OVCAR-4 ovarian): > 100 µM
- TGI (MDA-MB-231 breast): > 100 µM
- TGI (DU-145 prostate): > 100 µM
- TGI (TK-10 renal): > 100 µM
- TGI (MDA-MB-435): > 100 µM
- TGI (SF-539 CNS): > 100 µM
- TGI (HCC-2998 colon): > 100 µM

Structure (SMILES): Cc1cccc2c1CC1(Cc3ccccc3C1=O)C2=O (stereo not given)
- TGI (A549 NSCLC): > 100 µM
- TGI (IGROV1 ovarian): > 100 µM
- TGI (BT-549 breast): 80.6 µM
- TGI (UACC-62 melanoma): > 100 µM
- TGI (SN12C renal): > 100 µM
- TGI (NCI-H23 lung): > 100 µM
- TGI (COLO 205 colon): > 100 µM
- TGI (SK-MEL-5 melanoma): > 100 µM
- TGI (HOP-62 NSCLC): > 100 µM
- TGI (SW-620 colon): > 100 µM
- TGI (MDA-N): > 100 µM
- TGI (HS 578T breast): > 100 µM
- TGI (NCI-H522 lung): > 100 µM
- TGI (NCI/ADR-RES ovarian): > 100 µM
- TGI (SK-MEL-28 melanoma): > 100 µM
- TGI (SNB-19 CNS): > 100 µM
- TGI (SF-295 CNS): > 100 µM
- TGI (HL-60(TB) leukemia): > 100 µM
- TGI (ACHN renal): > 100 µM
- TGI (MCF7 breast): > 100 µM
- TGI (M14 melanoma): > 100 µM
- TGI (HCT-116 colon): > 100 µM
- TGI (KM12 colon): > 100 µM
- TGI (OVCAR-5 ovarian): > 100 µM
- TGI (786-0 renal): > 100 µM
- TGI (RPMI-8226 leukemia): > 100 µM
- TGI (T-47D breast): > 100 µM
- TGI (A498 renal): > 100 µM
- TGI (EKVX NSCLC): > 100 µM
- TGI (MOLT-4 leukemia): > 100 µM
- TGI (NCI-H226 lung): > 100 µM
- TGI (SNB-75 CNS): > 100 µM
- TGI (OVCAR-3 ovarian): > 100 µM
- TGI (SR leukemia): > 100 µM
- TGI (SF-268 CNS): > 100 µM
- TGI (UACC-257 melanoma): > 100 µM
- TGI (LOX IMVI melanoma): > 100 µM
- TGI (OVCAR-8 ovarian): > 100 µM
- TGI (RXF 393 renal): > 100 µM
- TGI (HT29 colon): > 100 µM
- TGI (CCRF-CEM leukemia): > 100 µM
- TGI (HCT-15 colon): > 100 µM
- TGI (HOP-92 NSCLC): > 100 µM
- TGI (K-562 leukemia): > 100 µM
- TGI (PC-3 prostate): > 100 µM
- TGI (MALME-3M melanoma): > 100 µM
- TGI (NCI-H460 lung): > 100 µM
- TGI (UO-31 renal): > 100 µM
- TGI (SK-OV-3 ovarian): 99.6 µM
- TGI (U251 CNS): > 100 µM
- TGI (OVCAR-4 ovarian): > 100 µM
- TGI (MDA-MB-231 breast): > 100 µM
- TGI (DU-145 prostate): > 100 µM
- TGI (TK-10 renal): > 100 µM
- TGI (MDA-MB-435): > 100 µM
- TGI (SF-539 CNS): > 100 µM
- TGI (HCC-2998 colon): > 100 µM
